Each structure is given as a SMILES string. ≈ marks a conversion by molar mass, not a printed value. Where two headings read alike, the source gives them in different places.

What all share (type): cell-based
Experiment [1] deals with C. pneumoniae TW-183, CWL-029. Nature of the experiment: Anti-bacterial susceptibilities of reference strains.
The test system of experiment [2] is C. trachomatis serovar D strain. Briefly: Comparison of MIC, MCC, MCC3 and MCC3/MIC ratio in McCoy cells. As to conditions: for MCC / MCC3 / MIC: McCoy cells; for MIC: Chlamydia trachomatis, read-out: MIC.
The test system of experiment [3] is Chlamydia trachomatis clinical isolates. Briefly: Anti-bacterial susceptibilities of clinical isolates. The settings on record: for MCC3 (shell vial) / MCC (microtiter) / MCC (shell vial) / MIC (microtiter): McCoy cells.
Experiment [4] concerns C. trachomatis B,D,E,F,G,H,I,Ia,J,K (human genital serovars). Briefly: Anti-bacterial susceptibilities of reference strains. The settings on record: Chlamydia trachomatis; McCoy cells; read-out: MIC (microtiter).
A further experiment relates to C. psittaci 6BC, GPIC. Briefly: microbe, parasite or virus in culture. As to conditions: Chlamydia psittaci, read-out: MIC (microtiter).
For experiment [5], the system named is C. trachomatis MoPn (mouse pneumonitis strain). Nature of the experiment: Anti-bacterial susceptibilities of reference strains. As to conditions: Chlamydia trachomatis; McCoy cells; read-out: MIC (microtiter).
The subject of experiment [6] is clinical isolates of C. trachomatis. Nature of the experiment: microbe, parasite or virus in culture.
In experiment [7] the test system is C. trachomatis L2 (LGV serovar). Nature of the experiment: Anti-bacterial susceptibilities of reference strains. The settings on record: Chlamydia trachomatis; McCoy cells; read-out: MIC (microtiter).
The test system of experiment [8] is C. trachomatis serovar D (strain UW-3). Briefly: Effect of inoculum size on doxycycline MIC, MCC and MCC3.
Where [9] appears, read: CDC strains sensitive controls (n = 2).
Setting [10] is: CDC strains treatment failures (n = 2).
The mark [11] stands for this setting: Recurrent same serovar isolates (n = 6).
[12] abbreviates: Treatment failure isolates (n = 6).
The mark [13] stands for this setting: inoculum 0.3125 × 10^3 IFU/well.

Regarding `CC[C@H]1OC(=O)[C@H](C)[C@@H](O[C@H]2C[C@@](C)(OC)[C@@H](O)[C@H](C)O2)[C@H](C)[C@@H](O[C@@H]2O[C@H](C)C[C@H](N(C)C)[C@H]2O)[C@](C)(O)C[C@@H](C)CN(C)[C@H](C)[C@@H](O)[C@]1(C)O` [Azithromycin, azithromycin], in [1], the “MCC1 (shell vial)” value lay in the range of 4 to 8 µg/mL. Also, the “MCC3 (shell vial)” value in [1], in experiment [3] (setting [9]), in experiment [3] (setting [10]), in [3] (setting [11]), in experiment [3] (Single isolates (n = 30)) and in experiment [3] (setting [12]) was 64 µg/mL in each case. The “MCC (microtiter)” value in [1] is 0.25 µg/mL; in [3] (setting [9]) it was 0.25 to 0.5 µg/mL; in [3] (setting [10]), 0.25 to 0.5 µg/mL; in [3] (setting [11]) it was 0.25 to 0.5 µg/mL; in [3] (Single isolates (n = 30)) it was 0.25 to 0.5 µg/mL; in experiment [3] (setting [12]) it was 0.25 to 0.5 µg/mL. In addition, in [2], the MCC stood at 8 µg/mL. Further, the MCC3 in [2] worked out at 64 µg/mL. Moreover, the “MCC (shell vial)” value in experiment [3] (setting [9]), in experiment [3] (setting [10]), in experiment [3] (setting [11]), in experiment [3] (Single isolates (n = 30)) and in experiment [3] (setting [12]) was above 8 µg/mL throughout.
`C[C@H]1c2cccc(O)c2C(=O)C2=C(O)[C@]3(O)C(=O)C(C(N)=O)=C(O)[C@@H](N(C)C)[C@@H]3[C@@H](O)[C@@H]21` [Doxycycline, doxycycline]: in [1], the “MCC1 (shell vial)” value fell in the range of 4 to 8 µg/mL. Moreover, the “MCC3 (shell vial)” value in experiment [1] lay within 32 to 64 µg/mL; in experiment [3] (setting [9]), 16 to 64 µg/mL; in experiment [3] (setting [10]) it was 16 to 64 µg/mL; in [3] (setting [11]), 16 to 64 µg/mL; in experiment [3] (Single isolates (n = 30)) it was 16 to 64 µg/mL; in [3] (setting [12]) it was 16 to 64 µg/mL. The “MCC (microtiter)” value in [1] was 0.125 µg/mL; in experiment [3] (setting [9]), 0.125 to 0.25 µg/mL; in experiment [3] (setting [10]), 0.125 to 0.25 µg/mL; in [3] (setting [11]), 0.125 to 0.25 µg/mL; in experiment [3] (Single isolates (n = 30)), 0.125 to 0.25 µg/mL; in experiment [3] (setting [12]), 0.125 to 0.25 µg/mL. Besides, the MIC is 64 ng/mL (≈ 144 nM) in [1] (Chlamydia pneumoniae, HEp-2 cells, read-out: MIC (microtiter)); 64 ng/mL (≈ 144 nM) in experiment [4]; 64 ng/mL (≈ 144 nM) with C. psittaci 6BC, GPIC; 64 ng/mL in experiment [2]; 64 ng/mL (≈ 144 nM) in experiment [5]; 64 to 125 ng/mL (≈ 144 to 281 nM) in experiment [3] (Chlamydia trachomatis, read-out: MIC (microtiter)). In addition, the MIC in experiment [6] (Chlamydia trachomatis) was 64 to 125 ng/mL (≈ 144 to 281 nM); in [7], 64 ng/mL (≈ 144 nM); in experiment [8] (Chlamydia trachomatis, inoculum 80 × 10^3 IFU/well, read-out: MIC) it was 64 ng/mL (≈ 144 nM); in experiment [8] (setting [13]) it was 64 ng/mL (≈ 144 nM); in experiment [8] (inoculum 0.625 × 10^3 IFU/well), 64 ng/mL (≈ 144 nM); in [8] (inoculum 5 × 10^3 IFU/well) it was 64 ng/mL (≈ 144 nM). Further, the MIC in [8] (inoculum 10 × 10^3 IFU/well), in [8] (inoculum 20 × 10^3 IFU/well), in experiment [8] (inoculum 40 × 10^3 IFU/well), in experiment [8] (inoculum 160 × 10^3 IFU/well), in [8] (inoculum 320 × 10^3 IFU/well) and in experiment [8] (inoculum […] 10^3 IFU/well) was 64 ng/mL (≈ 144 nM) each time. In addition, the MCC3/MIC in [2] and in experiment [6] was 1000 in each case. Also, the MCC in experiment [2] was 8 µg/mL; in experiment [8] (setting [13]), 0.064 µg/mL; in experiment [8] (inoculum 0.625 × 10^3 IFU/well), 0.064 µg/mL; in [8] (inoculum 5 × 10^3 IFU/well) it was above 8 µg/mL; in experiment [8] (inoculum 10 × 10^3 IFU/well) it was above 8 µg/mL; in [8] (inoculum 20 × 10^3 IFU/well), above 8 µg/mL. Further, the MCC is above 8 µg/mL in experiment [8] (inoculum 40 × 10^3 IFU/well); above 8 µg/mL in experiment [8] (inoculum 80 × 10^3 IFU/well); above 8 µg/mL in [8] (inoculum 160 × 10^3 IFU/well); above 8 µg/mL in experiment [8] (inoculum 320 × 10^3 IFU/well); 0.064 µg/mL in experiment [8] (inoculum […] 10^3 IFU/well). Also, the MCC3 was 64 µg/mL in experiment [2]; 0.064 µg/mL in experiment [8] (setting [13]); 0.064 µg/mL in experiment [8] (inoculum 0.625 × 10^3 IFU/well); 64 µg/mL in experiment [8] (inoculum 5 × 10^3 IFU/well); 64 µg/mL in [8] (inoculum 10 × 10^3 IFU/well); 64 µg/mL in experiment [8] (inoculum 20 × 10^3 IFU/well). For the same molecule, the MCC3 came out at 64 µg/mL in experiment [8] (inoculum 40 × 10^3 IFU/well); 64 µg/mL in [8] (inoculum 80 × 10^3 IFU/well); 64 µg/mL in experiment [8] (inoculum 160 × 10^3 IFU/well); 64 µg/mL in experiment [8] (inoculum 320 × 10^3 IFU/well); 0.064 µg/mL in [8] (inoculum […] 10^3 IFU/well). Besides, the “MCC (shell vial)” value in [3] (setting [9]), in experiment [3] (setting [10]), in experiment [3] (setting [11]), in [3] (Single isolates (n = 30)) and in [3] (setting [12]) was above 8 µg/mL in each case. Besides, the “MIC (microtiter)” value in [3] (setting [9]) is 64 to 125 ng/mL; in experiment [3] (CDC strains treatment failures (n = 2), multi-drug resistant at CDC) it was 64 to 125 ng/mL; in experiment [3] (Single isolates (n = 30)), 64 to 125 ng/mL; in experiment [3] (setting [12]), 64 to 125 ng/mL.
For `CC[C@H]1OC(=O)[C@H](C)[C@@H](O[C@H]2C[C@@](C)(OC)[C@@H](O)[C@H](C)O2)[C@H](C)[C@@H](O[C@@H]2O[C@H](C)C[C@H](N(C)C)[C@H]2O)[C@](C)(O)C[C@@H](C)C(=O)[C@H](C)[C@@H](O)[C@]1(C)O` [Erythromycin, erythromycin], in [2], the MIC was found to be 500 ng/mL and the MCC stood at 8 µg/mL.
As for `CCCN1CCN(c2cc(O)c3nc4c5c6c7c(C)c(O)c5c(=O)c(c-4oc3c2)NC(=O)/C(C)=C\C=C\[C@H](C)[C@H](O)[C@@H](C)[C@@H](O)[C@@H](C)[C@H](OC(C)=O)[C@H](C)[C@@H](OC)/C=C/O[C@@](C)(O7)C6=O)CC1` [KRM-1657], in [6], the MCC3/MIC turned out to be 16, the MIC is 0.064 to 0.125 ng/mL and the “anti-chlamydial activity in words” value is recorded as “highly active”.

These data come from patent publication US20040029254A1, “Method of screening anti-bacterial agents for effectiveness in treating persistant intracellular infections” (University of Washington, priority 2002, published 2004).
